Consider two molecules from article PMC4295030, “Synthesis and molecular docking of novel non-competitive antagonists of GluK2 receptor” (Medicinal Chemistry Research, 2014).

Each structure is given as a SMILES string.

For this assay, the system named is T1, GluK2 receptor.
T1 construct: gene GRIK2
Description: aequorin luminescence Ca2+ influx assay in HEK293 cells. The conditions noted are these: 275 μM glutamate as agonist, Ringer buffer + 100 mM CaCl2. It is filed as cell-based. From the text: aequorin luminescence Ca2+ influx assay in HEK293 cells on GluK2 receptor

Consider `O=C1CCCc2c1c1ccccc1n2Cc1ccc(Cl)cc1` [compound 7, 9-(4-chlorobenzyl)-4-oxo-1,2,3,4-tetrahydrocarbazole], for which the “GluK2 inhibition at 100 µM, %” value came out at 22%. One may read the IC50 as the concentration needed to halve the response being measured. In the case of `COc1ccc2c(c1)c(C)c(-c1cccs1)n2C` [compound 3, 5-methoxy-1,3-dimethyl-2-(2-thienyl)indole], the IC50 (non-competitive) is 12 µM.
